Reference: US6326023A, “Synergistic anti-malarial formulation” (priority 2000, dated 2001)

Legend:
[1] = system: P. yoelii nigeriensis (MDR II); experiment: Resistance pattern of P. yoelii nigeriensis (MDR II) strain to antimalarials/antibiotics (oral) in Swiss mice; type: in vivo
Experimental: Swiss mice weighing 20±1 to 25±g of either sex and random laboratory bred at Central Drug Research Institute, Lucknow were used. Mice were routinely infected with 1×10^5 parasitized RBC intraperitoneally using sterile citrate saline as diluent for infected blood. […] From day 4 onwards, tail blood smears were examined after Giemsa staining and percent parasitaemia and mortality was recorded. The parasite (MDR strain) was lethal for Swiss mice and mice died in 6-8 days after developing parasitaemia above 40% to 100% infection of RBC, Mortality was 100% in mice.

[2] = system: P. falciparum; conditions: rectal suppository, in 48-56 h; cited from earlier work
[3] = im; cited from earlier work
[4] = human, in vivo; cited from earlier work

In the case of `CN(C)C1C(=O)C(C(N)=O)=C(O)C2(O)C(=O)C3=C(O)c4c(O)cccc4C(C)(O)C3CC12` (stereo not shown) [Tetracycline], the Parasite response ([1]; 500 mg/kg × 4 days) is reported as “Resistant”.
For `CN(C)C1C(=O)C(C(N)=O)=C(O)C2(O)C(=O)C3=C(O)c4c(O)cccc4C(C)(O)C3C(O)C12` (stereo not shown) [Oxytetracycline], the Parasite response ([1]; 500 mg/kg × 4 days) was “Resistant”.
For `CCN(CC)CCCC(C)Nc1ccnc2cc(Cl)ccc12` (stereo not shown) [Chloroquine], the Parasite response ([1]; 128 mg/kg × 4 days) was “Resistant”.
In the case of `CCN(CC)CCCC(C)Nc1c2ccc(Cl)cc2nc2ccc(OC)cc12` (stereo not shown) [Mepacrine], the Parasite response ([1]; 128 mg/kg × 4 days) is reported as “Resistant”.
In the case of `C[C@H]1c2cccc(O)c2C(=O)C2=C(O)[C@]3(O)C(=O)C(C(N)=O)=C(O)[C@@H](N(C)C)[C@@H]3[C@@H](O)[C@@H]21` [Doxycycline], the Parasite response ([1]; 25 mg/kg × 4 days) is reported as “Resistant”.
With `C=C[C@H]1C[N@@]2CC[C@H]1C[C@H]2[C@H](O)c1ccnc2ccc(OC)cc12` [Quinine] the Parasite response ([1]; 400 mg/kg × 4 days) was “Resistant”.
With `O=C(O)c1cn(C2CC2)c2cc(N3CCNCC3)c(F)cc2c1=O` [Ciprofloxacine] the Parasite response ([1]; 50 mg/kg × 4 days) was “Resistant”.
With `CC[C@H]1OC(=O)[C@H](C)[C@@H](O[C@H]2C[C@@](C)(OC)[C@@H](O)[C@H](C)O2)[C@H](C)[C@@H](O[C@@H]2O[C@H](C)C[C@H](N(C)C)[C@H]2O)[C@](C)(O)C[C@@H](C)C(=O)[C@H](C)[C@@H](O)[C@]1(C)O` [Erythromycin] the Parasite response ([1]; 250 mg/kg × 4 days) was “Resistant”.
In the case of `C[C@@H]1CC[C@H]2[C@@H](C)C(=O)O[C@@H]3O[C@@]4(C)CC[C@@H]1[C@]32OO4` [artemisinin], the “Dose needed for complete parasite clearance” value [2] is given as 2800 mg.
With `CCN(CC)Cc1cc(Nc2ccnc3cc(Cl)ccc23)ccc1O` [Amodiaquine] the Parasite response ([1]; 128 mg/kg × 4 days) was “Resistant”.
For `CCn1cc(C(=O)O)c(=O)c2cc(F)c(N3CCNCC3)cc21` [Norfloxacine], the Parasite response ([1]; 50 mg/kg × 4 days) was “Resistant”.
With `CN(C)[C@@H]1C(O)=C(C(N)=O)C(=O)[C@@]2(O)C(O)=C3C(=O)c4c(O)ccc(Cl)c4[C@@H](O)[C@H]3C[C@@H]12` [Demeclocycline] the Parasite response ([1]; 500 mg/kg × 4 days) was “Resistant”.
For `COc1cc(C)c2c(Oc3cccc(C(F)(F)F)c3)c(OC)cc(NC(C)CCCN)c2n1` (stereo not shown) [WR238605], the Parasite response ([1]; 10 mg/kg × 7 days) was “Resistant”.
For `C[C@H]1[C@H](OC(=O)CCC(=O)O)O[C@@H]2O[C@@]3(C)CC[C@H]4[C@H](C)CC[C@@H]1[C@@]24OO3` [artesunate], the LD50 [3] is given as 475 mg/kg.
For `C=C[C@H]1C[N@@]2CC[C@H]1C[C@@H]2[C@@H](O)c1ccnc2ccc(OC)cc12` [Quinidine], the Parasite response ([1]; 400 mg/kg × 4 days) was “Resistant”.
For `CCc1nc(N)nc(N)c1-c1ccc(Cl)cc1` [Pyrimethamine], the Parasite response ([1]; 16 mg/kg × 4 days) was “Resistant”.
In the case of `CCCCN(CCCC)CCC(O)c1cc2c(Cl)cc(Cl)cc2c2cc(C(F)(F)F)ccc12` (stereo not shown) [Halofantrine], the Parasite response ([1]; 32 mg/kg × 4 days) is given as “Resistant” and the Cardiotoxicity [4] is given as “increased risk of cardiotoxicity”.
In the case of `OC(c1cc(C(F)(F)F)nc2c(C(F)(F)F)cccc12)C1CCCCN1` (stereo not shown) [Mefloquine], the Parasite response ([1]; 128 mg/kg × 4 days) is reported as “Resistant”.
